Test results taken from patent US9932410B2, “Human neutralizing anti-kit antibodies and uses thereof” (INSERM (Institut National de la Sante et de la Recherche …, priority 2013, dated 2018).
Entries after “also recorded” stand apart in the source; their conditions may differ.

Legend:
HMC1.1 (KITV560G) cells = test: Proliferation assay (MTS cell viability) on HMC1.1 cells; assay type: cell-based, human
Description: FIG. 5: Antibody modulation of oncogenic KIT. (A) HMC1.1 or HMC1.2 cells were incubated in IMDM 1% serum in the presence of anti-KIT antibodies or control antibody as indicated at 5 μg/mL (light grey) or 50 μg/mL (medium grey) or without antibody (dark grey). Cell viability is expressed in % compared to non treated cells. HMC1.1 or HMC1.2 cells were incubated in IMDM 10% serum in the presence of anti-KIT antibodies or control antibody (10 μg/mL) for 1, 2 or 24 hrs. As indicated and analyzed (B) by FACS using 104D2 anti-KIT antibody or (C) by western blot using anti-KIT and phospho-specific anti-KIT antibodies. (D) Three days treatment with anti-KIT antibodies maintained a low level of KIT on both mastocytoma cell lines.
UT-7 were seeded at 10^4 cells/well and treated for 4 days with 2D1, 3G1, H7 or Bot irrelevant antibody at 5 or 50 μg/mL […] in the presence of EPO or CHO-KL supernatant diluted 500 times. HMC1.1 and 1.2 were treated the same but for 7 days and with 1% SVF instead of 10% and without cytokines. Cell viability was estimated with MTS assay (PROMEGA) as recommended by the manufacturer.

[1] = system: HMC1.2 (KIT V560G D816V) cells; test: Proliferation assay (MTS cell viability) on HMC1.2 cells
[2] = target: T1, KIT surface level on UT-7/EPO cells (wild type KIT) (Homo sapiens, UniProt P10721); test: Internalization assay: KIT surface level by FACS with 104D2 on UT-7/EPO cells; assay type: cell-based
T1 construct: endogenous in cells; host or cells: UT-7/EPO human erythroleukemic cells
T1 sequence (P10721 26-976): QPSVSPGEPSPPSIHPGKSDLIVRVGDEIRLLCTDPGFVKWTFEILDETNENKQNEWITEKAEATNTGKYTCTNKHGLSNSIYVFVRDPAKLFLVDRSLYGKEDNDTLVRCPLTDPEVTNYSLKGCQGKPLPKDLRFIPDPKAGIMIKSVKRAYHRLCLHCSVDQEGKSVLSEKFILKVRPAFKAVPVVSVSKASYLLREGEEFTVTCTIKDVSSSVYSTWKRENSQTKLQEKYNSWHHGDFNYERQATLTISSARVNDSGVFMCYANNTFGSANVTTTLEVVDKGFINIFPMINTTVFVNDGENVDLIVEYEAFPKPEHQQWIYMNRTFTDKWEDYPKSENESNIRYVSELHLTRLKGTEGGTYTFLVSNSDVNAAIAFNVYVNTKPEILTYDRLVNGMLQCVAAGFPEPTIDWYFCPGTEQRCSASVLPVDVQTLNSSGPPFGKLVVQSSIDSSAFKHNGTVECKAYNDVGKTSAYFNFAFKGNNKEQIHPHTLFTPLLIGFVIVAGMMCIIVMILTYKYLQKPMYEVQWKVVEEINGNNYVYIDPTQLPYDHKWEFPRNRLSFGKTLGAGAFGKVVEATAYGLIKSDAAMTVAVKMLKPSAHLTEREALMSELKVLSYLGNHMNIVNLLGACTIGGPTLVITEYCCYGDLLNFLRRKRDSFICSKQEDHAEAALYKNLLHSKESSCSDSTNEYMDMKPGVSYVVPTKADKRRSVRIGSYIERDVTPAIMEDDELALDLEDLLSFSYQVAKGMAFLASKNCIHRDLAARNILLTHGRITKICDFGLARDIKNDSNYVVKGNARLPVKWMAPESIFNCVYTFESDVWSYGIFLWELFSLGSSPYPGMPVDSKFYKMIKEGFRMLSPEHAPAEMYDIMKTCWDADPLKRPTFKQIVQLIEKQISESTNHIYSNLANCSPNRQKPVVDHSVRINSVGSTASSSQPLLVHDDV

biotinylated KIT-ECD = target: T2, biotinylated KIT-ECD (Homo sapiens, UniProt P10721); test: Affinity measurement using yeast display of scFv with biotinylated KIT-ECD; assay type: binding; conditions: scFv displayed on yeast; for Kd: affinity matured variants, read-out: intrinsic Kd
T2 construct: KIT-ECD, amino acid 26 to 509, P10721 UniProtKB/Swiss-Prot; 6His (C); biotin (label); made in house; host or cells: insect cells (High Five, baculovirus)
T2 sequence (P10721 26-509): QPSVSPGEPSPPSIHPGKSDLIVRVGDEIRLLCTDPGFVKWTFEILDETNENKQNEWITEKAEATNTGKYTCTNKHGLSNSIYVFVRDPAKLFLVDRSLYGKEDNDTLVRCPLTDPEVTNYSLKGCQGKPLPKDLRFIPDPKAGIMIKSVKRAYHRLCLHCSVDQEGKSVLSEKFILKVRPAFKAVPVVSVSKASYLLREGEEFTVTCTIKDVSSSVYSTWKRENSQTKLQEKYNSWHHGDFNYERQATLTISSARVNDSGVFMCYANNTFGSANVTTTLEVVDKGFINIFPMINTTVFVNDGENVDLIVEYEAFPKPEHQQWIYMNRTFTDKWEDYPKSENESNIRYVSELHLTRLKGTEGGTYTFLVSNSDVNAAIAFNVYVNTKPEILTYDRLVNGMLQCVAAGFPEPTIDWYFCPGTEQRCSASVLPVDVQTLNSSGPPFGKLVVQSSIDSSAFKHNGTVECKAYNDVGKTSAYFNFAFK
Source text: Cells were then put on ice, washed with ice cold FACS buffer and bound antigen was detected with Streptavin conjugated to PE.

Cc1nc(Nc2ncc(C(=O)Nc3c(C)cccc3Cl)s2)cc(N2CCN(CCO)CC2)n1 [dasatinib, N-(2-chloro-6-methylphenyl)-2-[[6-[4-(2-hydroxyethyl)-1-piperazinyl]-2-methyl-4-pyrimidinyl]amino]-5-thiazole-carboxamide monohydrate] was tested, and the “toxicity of TKI to HMC1.1 cells” value (HMC1.1 (KITV560G) cells) was “toxic to HMC1.1 cells” and the “toxicity of TKI to HMC1.2 cells” value [1] was “toxic to HMC1.2 cells”.

Cc1ccc(NC(=O)c2ccc(CN3CCN(C)CC3)cc2)cc1Nc1nccc(-c2cccnc2)n1 [imatinib, 4-[(4-methylpiperazin-1-yl)methyl]-N-(4-methyl-3-{[4-(pyridin-3-yl)pyrimidin-2-yl]amino}phenyl)benzamide] was tested, and the “toxicity of TKI to HMC1.1 cells” value (HMC1.1 (KITV560G) cells) was “toxic to HMC1.1 cells”, the “KIT surface levels, imatinib treatment alone” value ([2]; UT-7/EPO cells with EPO, Imatinib 1 μM, 4 hrs) was “decreased KIT surface levels; also recorded: reduced KIT level at the cell surface” and the “effect on SCF-induced KIT surface level decrease” value ([2]; UT-7/EPO cells, imatinib with SCF) was “inhibited SCF-induced KIT surface level decrease”. The “toxicity of TKI to HMC1.2 cells” value [1] was “resistance of the D816V mutant to imatinib”.

B1: 3G1-A2: affinity matured variant of 3G1, same VH (SEQ ID NO: 9), VL SEQ ID NO: 30 (antibody, V domains shown)
VH: MAQVQLVESWGGVAQPGRSLRLSCAASGFTFSSFAMHWVRQAPGKGLEWVAVTSYDGSNEYYADSVKGRFTISRDNSKNTLYLQMNSLRAEDTAVYYCAKAMVRGVTFGDLDYWGQGTLVTVSS
VL: SSELTQDPAVSVALGQTVRKTCQGDSLKSYYASWYQQKPGQAPVLVIYGENSRPSGIPDRFSGSSSGNTASLTITGAQAEDEADYYCCSRATGGYHRIFGGGTKLTVLG
modifications: Synthetic 3G1 VH chain; Synthetic 3G1-A2 VL chain
B1 was tested, and the “concentration of Ag at which saturation is reached” value (biotinylated KIT-ECD) was 10 nM and the Kd (biotinylated KIT-ECD) was 1.7 nM.

B2: 2D1-C7: affinity matured variant of 2D1, same VH (SEQ ID NO: 1), VL SEQ ID NO: 26 (antibody, V domains shown)
VH: MAQVKLQESGGGLVQPGGSLRLSCAASGFTFDSYAMSWVRQAPGKGLEWVSYITSSSSTIYYVDSVKGRFTISRDNAKNSLYLQMNSLRDEDTAVYYCARLRNSEGYWYFDLWGRGTLVTVSS
VL: SQSVLTQDPAVSVALGQTVRITCQGDSLRSYYASWYQQKPGQAPLLVMYGENIRPSGIPDRFSGSTSGNSASLTITGAQAEDEADYYCNSRDSSGNHLNWVFGGGTKLTVLG
modifications: Synthetic 2D1 VH chain; Synthetic 2D1-C7 VL chain
With B2 the “concentration of Ag at which saturation is reached” value (biotinylated KIT-ECD) was 10 nM and the Kd (biotinylated KIT-ECD) was 4.2 nM.
